Measurements reported in patent US8481586B2, “Pyrrolo[2,3-a] carbazoles and use thereof as PIM kinase inhibitors” (Centre National de la Recherche Scientifique, priority 2008, dated 2013).
pIC50: −log10 of the molar value. Like-named read-outs stand apart in the source and are kept apart here.

Experiments:
Format in all cases: biochemical
PIM-2 = PIM-2 (Homo sapiens (Human), UniProt Q9P1W9); experiment: inhibition test on kinase PIM-2 (residual activity, IC50)
BRSK2 = BRSK2 (Homo sapiens (Human), UniProt Q8IWQ3); experiment: kinase panel residual activity test; conditions: compound at 10 μM
Source text: (§1) MKK1, ERK 1, ERK 2, JNK1, JNK2, JNK3, p38a MAPK, p38b MAPK, p38g MAPK, p38s MAPK, ERK8, RSK1, RSK2, PDK1, PKBa, PKBb, SGK1, S6K1, PKA, ROCK2, PRK2, PKCa, PKC zeta, PKD1, MSK1, MNK1, MNK2, MAPKAP-K2, MAPKAP-K3, PRAK, CAMKKa, CAMKKb, CAMK1, SmMLCK, PHK, CHK1, CHK2, GSK3b, CDK2/cyclin A, PLK1, PLK1 (Okadaic acid), Aurora B, Aurora C, AMPK, MARK3, BRSK2, MELK, CK1, CK2, NEK2a, NEK6, NEK7, IKKb, PIM-1, PIM-2, PIM-3, SRPK1, MST2, EF2K, HIPK2, HIPK3, PAK-4, PAK5, PAK6, Src, Lck, CSK.

CK1 = experiment: kinase panel residual activity test; conditions: compound at 10 μM
Source text: as §1

MELK = MELK (Homo sapiens (Human), UniProt Q14680); experiment: kinase panel residual activity test; conditions: compound at 10 μM
Source text: as §1

ROCK2 = ROCK2 (Homo sapiens (Human), UniProt O75116); experiment: kinase panel residual activity test; conditions: compound at 10 μM
Source text: as §1

HIPK2 = HIPK2 (Homo sapiens (Human), UniProt Q9H2X6); experiment: kinase panel residual activity test; conditions: compound at 10 μM
Source text: as §1

PAK6 = PAK6 (Homo sapiens (Human), UniProt Q9NQU5); experiment: kinase panel residual activity test; conditions: compound at 10 μM
Source text: as §1

PLK1 (Okadaic acid) = PLK1 (Okadaic acid) (Homo sapiens (Human), UniProt P53350); experiment: kinase panel residual activity test; conditions: compound at 10 μM
Source text: as §1

PRAK = PRAK (Homo sapiens (Human), UniProt Q8IW41); experiment: kinase panel residual activity test; conditions: compound at 10 μM
Source text: as §1

ERK2 = ERK2 (Homo sapiens (Human), UniProt P28482); experiment: kinase panel residual activity test; conditions: compound at 10 μM
Source text: as §1

CK2 = experiment: kinase panel residual activity test; conditions: compound at 10 μM
Source text: as §1

JNK1 = JNK1 (Homo sapiens (Human), UniProt P45983); experiment: kinase panel residual activity test; conditions: compound at 10 μM
Source text: as §1

GSK3b = GSK3b (Homo sapiens (Human), UniProt P49841); experiment: kinase panel residual activity test; conditions: compound at 10 μM
Source text: as §1

PDK1 = PDK1 (Homo sapiens (Human), UniProt O15530); experiment: kinase panel residual activity test; conditions: compound at 10 μM
Source text: as §1

MKK1 = MKK1 (Homo sapiens (Human), UniProt Q02750); experiment: kinase panel residual activity test; conditions: compound at 10 μM
Source text: as §1

MAPKAP-K3 = MAPKAP-K3 (Homo sapiens (Human), UniProt Q16644); experiment: kinase panel residual activity test; conditions: compound at 10 μM
Source text: as §1

NEK6 = NEK6 (Homo sapiens (Human), UniProt Q9HC98); experiment: kinase panel residual activity test; conditions: compound at 10 μM
Source text: as §1

HIPK3 = HIPK3 (Homo sapiens (Human), UniProt Q9H422); experiment: kinase panel residual activity test; conditions: compound at 10 μM
Source text: as §1

p38g MAPK = p38g MAPK (Homo sapiens (Human), UniProt P53778); experiment: kinase panel residual activity test; conditions: compound at 10 μM
Source text: as §1

PHK = experiment: kinase panel residual activity test; conditions: compound at 10 μM
Source text: as §1

S6K1 = S6K1 (Homo sapiens (Human), UniProt P23443); experiment: kinase panel residual activity test; conditions: compound at 10 μM
Source text: as §1

Lck = Lck (Homo sapiens (Human), UniProt P06239); experiment: kinase panel residual activity test; conditions: compound at 10 μM
Source text: as §1

RSK1 = RSK1 (Homo sapiens (Human), UniProt Q15418); experiment: kinase panel residual activity test; conditions: compound at 10 μM
Source text: as §1

p38s MAPK = p38s MAPK (Homo sapiens (Human), UniProt O15264); experiment: kinase panel residual activity test; conditions: compound at 10 μM
Source text: as §1

PAK5 = PAK5 (Homo sapiens (Human), UniProt Q9P286); experiment: kinase panel residual activity test; conditions: compound at 10 μM
Source text: as §1

CAMK1 = CAMK1 (Homo sapiens (Human), UniProt Q14012); experiment: kinase panel residual activity test; conditions: compound at 10 μM
Source text: as §1

SRPK1 = SRPK1 (Homo sapiens (Human), UniProt Q96SB4); experiment: kinase panel residual activity test; conditions: compound at 10 μM
Source text: as §1

PIM-3 = PIM-3 (Homo sapiens (Human), UniProt Q86V86); experiment: inhibition test on kinase PIM-3 (residual activity, IC50)
PIM-1 = PIM-1 (Homo sapiens (Human), UniProt P11309); experiment: inhibition test on kinase PIM-1 (residual activity, IC50)
[1] = compound at 10 μM, Table 1 panel, read-out: % residual activity PIM-2
[2] = product at 10 μmol/L, Table 2, N.I. = not inhibitory, read-out: Percentage of residual activity PIM-2
[3] = compound at 10 μM, Table 1 panel, read-out: % residual activity PIM-3
[4] = product at 10 μmol/L, Table 2, N.I. = not inhibitory, read-out: Percentage of residual activity PIM-3
[5] = compound at 10 μM, Table 1 panel, read-out: % residual activity PIM-1
[6] = product at 10 μmol/L, Table 2, N.I. = not inhibitory, read-out: Percentage of residual activity PIM-1
[7] = ten concentrations, dose-inhibition curve

Chain of HIPK3 (Q9H422 whole entry, species assumed): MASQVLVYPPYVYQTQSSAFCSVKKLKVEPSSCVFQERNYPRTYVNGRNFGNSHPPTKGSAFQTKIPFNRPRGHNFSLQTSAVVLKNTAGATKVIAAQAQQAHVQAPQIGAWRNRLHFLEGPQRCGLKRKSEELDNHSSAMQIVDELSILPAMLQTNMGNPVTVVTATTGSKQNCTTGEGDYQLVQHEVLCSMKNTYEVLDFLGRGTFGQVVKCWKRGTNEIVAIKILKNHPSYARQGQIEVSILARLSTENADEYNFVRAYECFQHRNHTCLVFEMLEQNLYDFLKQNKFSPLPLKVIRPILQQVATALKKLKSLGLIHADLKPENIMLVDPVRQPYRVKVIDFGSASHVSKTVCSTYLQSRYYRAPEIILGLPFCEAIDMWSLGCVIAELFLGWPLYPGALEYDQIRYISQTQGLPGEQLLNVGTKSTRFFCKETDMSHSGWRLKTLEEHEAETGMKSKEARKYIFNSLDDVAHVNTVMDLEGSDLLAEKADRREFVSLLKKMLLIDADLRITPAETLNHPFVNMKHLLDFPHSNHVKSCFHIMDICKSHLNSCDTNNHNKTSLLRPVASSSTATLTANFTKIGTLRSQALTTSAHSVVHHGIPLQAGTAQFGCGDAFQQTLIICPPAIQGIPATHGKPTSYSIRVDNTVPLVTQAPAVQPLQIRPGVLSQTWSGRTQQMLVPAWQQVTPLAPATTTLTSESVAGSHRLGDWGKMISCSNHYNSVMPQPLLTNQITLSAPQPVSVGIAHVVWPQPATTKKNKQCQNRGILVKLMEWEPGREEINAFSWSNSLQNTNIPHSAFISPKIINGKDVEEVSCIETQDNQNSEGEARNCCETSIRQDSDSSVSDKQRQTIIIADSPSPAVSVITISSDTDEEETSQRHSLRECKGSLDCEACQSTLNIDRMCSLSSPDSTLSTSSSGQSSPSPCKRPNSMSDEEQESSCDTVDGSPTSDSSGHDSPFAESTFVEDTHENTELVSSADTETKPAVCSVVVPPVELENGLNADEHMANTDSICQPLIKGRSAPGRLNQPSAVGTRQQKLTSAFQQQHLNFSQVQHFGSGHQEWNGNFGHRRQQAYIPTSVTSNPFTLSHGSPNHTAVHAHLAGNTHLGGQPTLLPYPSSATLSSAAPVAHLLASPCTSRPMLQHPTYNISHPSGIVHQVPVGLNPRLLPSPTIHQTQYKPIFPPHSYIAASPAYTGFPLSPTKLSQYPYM
Chain of GSK3b (P49841 whole entry, species assumed): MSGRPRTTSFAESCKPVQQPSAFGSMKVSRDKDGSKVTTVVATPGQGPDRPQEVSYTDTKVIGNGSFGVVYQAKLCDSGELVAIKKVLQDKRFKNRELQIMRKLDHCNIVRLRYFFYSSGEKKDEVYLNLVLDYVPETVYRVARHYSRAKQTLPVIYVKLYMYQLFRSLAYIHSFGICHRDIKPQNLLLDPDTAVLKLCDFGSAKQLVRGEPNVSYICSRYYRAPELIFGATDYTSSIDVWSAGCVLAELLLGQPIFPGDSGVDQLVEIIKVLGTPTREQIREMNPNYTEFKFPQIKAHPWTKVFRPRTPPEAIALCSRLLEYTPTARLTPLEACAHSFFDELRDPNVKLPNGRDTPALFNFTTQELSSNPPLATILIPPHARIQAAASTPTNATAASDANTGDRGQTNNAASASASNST
Chain of SRPK1 (Q96SB4 whole entry, species assumed): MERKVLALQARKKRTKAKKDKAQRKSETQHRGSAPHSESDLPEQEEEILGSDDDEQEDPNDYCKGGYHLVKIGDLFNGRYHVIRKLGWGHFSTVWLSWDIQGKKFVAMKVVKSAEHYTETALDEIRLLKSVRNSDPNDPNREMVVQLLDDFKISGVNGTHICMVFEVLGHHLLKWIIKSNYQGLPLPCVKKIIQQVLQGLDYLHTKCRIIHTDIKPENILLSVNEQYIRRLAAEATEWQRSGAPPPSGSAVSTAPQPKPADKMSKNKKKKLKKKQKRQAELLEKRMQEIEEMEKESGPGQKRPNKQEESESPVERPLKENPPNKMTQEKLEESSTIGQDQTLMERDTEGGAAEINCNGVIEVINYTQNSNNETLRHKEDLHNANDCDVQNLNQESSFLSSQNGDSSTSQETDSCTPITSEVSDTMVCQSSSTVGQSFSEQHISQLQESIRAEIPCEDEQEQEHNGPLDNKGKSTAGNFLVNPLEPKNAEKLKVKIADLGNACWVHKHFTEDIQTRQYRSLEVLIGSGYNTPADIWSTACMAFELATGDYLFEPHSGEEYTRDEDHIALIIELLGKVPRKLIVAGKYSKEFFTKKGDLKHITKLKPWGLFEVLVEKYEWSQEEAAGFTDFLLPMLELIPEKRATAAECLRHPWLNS
Chain of JNK1 (P45983 whole entry, species assumed): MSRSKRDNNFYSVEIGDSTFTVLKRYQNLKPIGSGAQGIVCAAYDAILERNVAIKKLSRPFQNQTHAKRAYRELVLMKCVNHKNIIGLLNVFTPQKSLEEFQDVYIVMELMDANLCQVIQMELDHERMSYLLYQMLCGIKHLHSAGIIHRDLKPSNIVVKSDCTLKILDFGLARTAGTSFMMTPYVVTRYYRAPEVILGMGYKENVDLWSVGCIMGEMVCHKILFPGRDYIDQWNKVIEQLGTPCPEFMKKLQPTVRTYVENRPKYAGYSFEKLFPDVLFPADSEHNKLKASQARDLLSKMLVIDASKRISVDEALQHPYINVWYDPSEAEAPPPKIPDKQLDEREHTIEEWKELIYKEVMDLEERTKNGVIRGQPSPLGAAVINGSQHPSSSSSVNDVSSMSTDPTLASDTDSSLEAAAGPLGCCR
Chain of PDK1 (O15530 whole entry): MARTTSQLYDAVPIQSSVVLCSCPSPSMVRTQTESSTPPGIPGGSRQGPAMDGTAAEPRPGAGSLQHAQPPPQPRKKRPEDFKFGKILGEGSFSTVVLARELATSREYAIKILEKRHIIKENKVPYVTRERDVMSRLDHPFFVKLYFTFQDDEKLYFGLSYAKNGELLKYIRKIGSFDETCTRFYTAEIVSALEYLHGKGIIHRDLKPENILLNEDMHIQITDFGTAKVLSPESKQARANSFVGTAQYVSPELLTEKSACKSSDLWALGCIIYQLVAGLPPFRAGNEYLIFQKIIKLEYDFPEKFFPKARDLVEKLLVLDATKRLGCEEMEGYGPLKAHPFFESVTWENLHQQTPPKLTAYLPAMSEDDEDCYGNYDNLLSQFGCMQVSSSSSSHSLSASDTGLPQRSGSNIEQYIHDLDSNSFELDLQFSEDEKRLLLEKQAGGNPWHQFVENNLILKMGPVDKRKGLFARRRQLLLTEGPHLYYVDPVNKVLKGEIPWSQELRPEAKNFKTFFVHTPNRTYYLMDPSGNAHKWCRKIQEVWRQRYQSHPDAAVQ
Chain of BRSK2 (Q8IWQ3 whole entry, species assumed): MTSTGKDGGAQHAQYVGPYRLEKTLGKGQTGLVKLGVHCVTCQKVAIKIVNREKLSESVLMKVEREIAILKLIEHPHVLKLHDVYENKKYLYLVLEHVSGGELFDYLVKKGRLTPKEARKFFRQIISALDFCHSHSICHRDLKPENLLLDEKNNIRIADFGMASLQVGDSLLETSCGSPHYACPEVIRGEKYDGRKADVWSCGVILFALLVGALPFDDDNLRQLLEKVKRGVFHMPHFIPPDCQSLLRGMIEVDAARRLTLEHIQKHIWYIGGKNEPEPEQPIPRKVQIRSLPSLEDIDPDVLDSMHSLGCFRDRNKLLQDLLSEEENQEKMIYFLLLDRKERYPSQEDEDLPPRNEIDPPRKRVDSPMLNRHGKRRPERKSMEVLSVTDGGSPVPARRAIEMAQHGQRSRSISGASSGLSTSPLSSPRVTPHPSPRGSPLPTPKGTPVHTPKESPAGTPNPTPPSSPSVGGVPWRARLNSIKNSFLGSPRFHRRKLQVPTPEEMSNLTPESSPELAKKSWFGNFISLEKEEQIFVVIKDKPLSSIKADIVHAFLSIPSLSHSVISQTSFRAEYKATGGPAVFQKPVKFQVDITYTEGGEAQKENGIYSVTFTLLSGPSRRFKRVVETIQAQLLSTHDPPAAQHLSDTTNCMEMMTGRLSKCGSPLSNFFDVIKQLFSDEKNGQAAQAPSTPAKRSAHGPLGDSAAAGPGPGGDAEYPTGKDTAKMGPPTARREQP
Chain of p38s MAPK (O15264 whole entry): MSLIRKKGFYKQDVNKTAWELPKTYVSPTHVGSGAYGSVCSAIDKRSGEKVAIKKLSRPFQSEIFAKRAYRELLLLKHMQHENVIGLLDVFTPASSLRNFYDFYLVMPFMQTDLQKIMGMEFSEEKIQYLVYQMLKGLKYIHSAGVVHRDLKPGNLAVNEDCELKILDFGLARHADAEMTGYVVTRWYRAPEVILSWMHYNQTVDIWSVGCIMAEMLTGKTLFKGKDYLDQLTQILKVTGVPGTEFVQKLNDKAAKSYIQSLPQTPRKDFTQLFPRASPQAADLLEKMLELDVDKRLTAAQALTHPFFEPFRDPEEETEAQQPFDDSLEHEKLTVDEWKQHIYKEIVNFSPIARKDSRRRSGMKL
Chain of PLK1 (Okadaic acid) (P53350 whole entry, species assumed): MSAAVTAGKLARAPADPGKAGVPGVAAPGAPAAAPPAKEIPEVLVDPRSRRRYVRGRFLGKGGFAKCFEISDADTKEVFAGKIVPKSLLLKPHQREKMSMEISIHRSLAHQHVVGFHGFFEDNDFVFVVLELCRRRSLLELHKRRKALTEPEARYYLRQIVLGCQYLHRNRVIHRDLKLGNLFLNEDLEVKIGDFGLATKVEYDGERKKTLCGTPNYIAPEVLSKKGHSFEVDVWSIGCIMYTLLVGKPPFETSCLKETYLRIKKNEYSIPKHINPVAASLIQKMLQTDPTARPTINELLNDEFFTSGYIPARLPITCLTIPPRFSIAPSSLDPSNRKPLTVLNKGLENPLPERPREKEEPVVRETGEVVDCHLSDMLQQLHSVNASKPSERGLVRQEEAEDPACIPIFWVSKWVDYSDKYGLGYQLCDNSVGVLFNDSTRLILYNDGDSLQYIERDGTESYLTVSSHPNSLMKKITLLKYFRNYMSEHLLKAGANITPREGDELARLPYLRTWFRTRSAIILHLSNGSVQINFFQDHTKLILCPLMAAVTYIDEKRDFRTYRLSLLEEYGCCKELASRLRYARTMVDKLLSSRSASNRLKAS

Row | SMILES | remaining activity at 10 µM (PIM-2; [1]) | remaining activity at 10 µM (BRSK2) | remaining activity at 10 µM (MELK) | remaining activity at 10 µM (HIPK2) | remaining activity at 10 µM (PAK6) | remaining activity at 10 µM (PLK1 (Okadaic acid)) | remaining activity at 10 µM (PRAK) | remaining activity at 10 µM (JNK1) | remaining activity at 10 µM (GSK3b) | remaining activity at 10 µM (PDK1) | remaining activity at 10 µM (MAPKAP-K3) | remaining activity at 10 µM (NEK6) | remaining activity at 10 µM (HIPK3) | remaining activity at 10 µM (p38g MAPK) | % residual activity PHK (PHK) | remaining activity at 10 µM (S6K1) | remaining activity at 10 µM (p38s MAPK) | remaining activity at 10 µM (PAK5) | remaining activity at 10 µM (CAMK1) | remaining activity at 10 µM (SRPK1) | also measured
1 | c1ccc2c(c1)[nH]c1c2ccc2cc[nH]c21 [Example 2, 1,10-dihydropyrrolo[2,3-a]carbazole] | 62% | 58% | 93% | 59% | 92% | 103% | 97% | 102% | 111% | 86% | 89% | 90% | 97% | 111% | 90% | 89% | 78% | 82% | 29% | 90% | remaining activity at 10 µM (PIM-2; [2]): 62%; % residual activity CK1 (CK1): 107%; remaining activity at 10 µM (ROCK2): 86%; remaining activity at 10 µM (ERK2): 94%; % residual activity CK2 (CK2): 91%; remaining activity at 10 µM (MKK1): 87%; remaining activity at 10 µM (Lck): 88%; remaining activity at 10 µM (RSK1): 105%; remaining activity at 10 µM (PIM-3; [3]): 10%; remaining activity at 10 µM (PIM-3; [4]): 10%; remaining activity at 10 µM (PIM-1; [5]): 20%; remaining activity at 10 µM (PIM-1; [6]): 20%
2 | O=Cc1c[nH]c2c1ccc1c3ccccc3[nH]c12 [Example 3, 1,10-dihydropyrrolo[2,3-a]carbazole-3-carbaldehyde] |  | 22% | 61% | 25% | 94% | 83% | 72% | 102% | 88% | 76% | 69% | 78% | 64% | 74% | 33% | 38% | 92% | 87% | 71% | 84% | 
3 | NC(=O)c1c[nH]c2c1ccc1c3ccccc3[nH]c12 [Example 5, 1,10-dihydropyrrolo[2,3-a]carbazole-3-carboxamide] | 27% | 32% | 80% | 42% | 83% | 79% | 85% | 106% | 91% | 67% | 75% | 83% | 87% | 96% | 43% | 72% | 76% | 70% | 80% | 93% | remaining activity at 10 µM (PIM-2; [2]): 27%; % residual activity CK1 (CK1): 96%; remaining activity at 10 µM (ROCK2): 48%; remaining activity at 10 µM (ERK2): 93%; % residual activity CK2 (CK2): 77%; remaining activity at 10 µM (MKK1): 80%; remaining activity at 10 µM (Lck): 78%; remaining activity at 10 µM (RSK1): 79%; remaining activity at 10 µM (PIM-3; [3]): 9%; remaining activity at 10 µM (PIM-3; [4]): 9%; pIC50 (PIM-3; [7]): 6.68; remaining activity at 10 µM (PIM-1; [5]): 9%; remaining activity at 10 µM (PIM-1; [6]): 9%; pIC50 (PIM-1; [7]): 6.11
